In the supplement of paper PMC11451515:

Assays:
Conditions in all cases: 48 h
SEM cells [1] = assay: cell viability relative to DMSO control; higher = less cytotoxic
Outline: (§1)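 Viability is a per-plate percentage relative to DMSO wells, with cell-free wells as background. CellTiter-Glo One luminescence was read after 48 h at 37°C on 1536-well plates (5 μl) of NOMO1 or SEM (500 cells/well) or P12-Ichikawa (1000 cells/well) leukemia cells. The cells had been adapted for at least four passages in each medium and pin-dosed with library compounds in DMSO from 47 μM to 0.79 nM in 11 threefold steps.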

P12-Ichikawa [2] = assay: AUC of viability dose-response curve (% viability x log10 dose units); higher = less sensitive
Outline: (§2)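 Over 48 h at 37°C, leukemia cells in 1536-well plates (500 or 1000 cells/well), adapted to each medium, received library compounds in DMSO at 11 threefold doses from 47 μM to 0.79 nM. CellTiter-Glo One luminescence, normalised per plate to DMSO and cell-free wells, was fitted by a four-parameter log-logistic function of log10 dose. The area under the curve was then integrated by trapezoidal rule, after scaling curves above full viability and removing those that failed quality control.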

SEM cells [3] = assay: as above
Outline: as §2

NOMO1 [4] = assay: as above
Outline: as §2

P12-Ichikawa [5] = assay: cell viability relative to DMSO control; higher = less cytotoxic
Outline: as §1

NOMO1 [6] = assay: as above
Outline: as §1

CCN(CC)Cc1ccc2cc(COC(=O)Nc3ccc(C(=O)NO)cc3)ccc2c1
SEM cells [1], HPLM + 10% dialyzed FBS
Conditions	cell viability [%]
0.000781 µM	108
0.00234 µM	121
0.00702 µM	127
0.0211 µM	138
0.0632 µM	129
0.19 µM	138
0.569 µM	118
1.71 µM	59.1
5.12 µM	3.07
15.4 µM	2.21
46.1 µM	3.97

AUC of viability dose-response curve
Conditions	NOMO1 [4]	P12-Ichikawa [2]	SEM cells [3]
HPLM + 10% dialyzed FBS	362	349	333
RPMI 5 mM glucose + 10% FBS	372	347	345
RPMI 5 mM glucose + 10% dialyzed FBS	370	352	339

COc1cc(Oc2ccnc3cc(OC)c(OC)cc23)ccc1NC(=O)NC(C)c1nccs1 (centres undefined)
AUC of viability dose-response curve
Conditions	NOMO1 [4]	P12-Ichikawa [2]	SEM cells [3]
HPLM + 10% dialyzed FBS	444	449	453
RPMI 5 mM glucose + 10% FBS	463	446	440
RPMI 5 mM glucose + 10% dialyzed FBS	462	450	439

CC(CCc1ccc(O)cc1)NCCc1ccc(O)c(O)c1 (centres undefined)
SEM cells [1], HPLM + 10% dialyzed FBS
Conditions	cell viability [%]
0.000781 µM	117
0.00234 µM	113
0.00702 µM	138
0.0211 µM	145
0.0632 µM	133
0.19 µM	141
0.569 µM	132
1.71 µM	128
5.12 µM	114
15.4 µM	90.5
46.1 µM	19.8

AUC of viability dose-response curve
Conditions	NOMO1 [4]	P12-Ichikawa [2]	SEM cells [3]
HPLM + 10% dialyzed FBS	463	441	436
RPMI 5 mM glucose + 10% FBS	461	450	415
RPMI 5 mM glucose + 10% dialyzed FBS	452	453	439

C\C1=N\N(C(=O)C1)C2=CC=CC=C2
cell viability [%], SEM cells [1]
Conditions	HPLM + 10% dialyzed FBS	RPMI 5 mM glucose + 10% FBS
0.000781 µM	102	113
0.00234 µM	104	121
0.00702 µM	121	129
0.0211 µM	136	119
0.0632 µM	130	130
0.19 µM	121	117
0.569 µM	112	121
1.71 µM	130	123
5.12 µM	121	132
15.4 µM	118	130
46.1 µM	111	117

AUC of viability dose-response curve
Conditions	NOMO1 [4]	P12-Ichikawa [2]	SEM cells [3]
HPLM + 10% dialyzed FBS	467	471	465
RPMI 5 mM glucose + 10% FBS	467	458	465
RPMI 5 mM glucose + 10% dialyzed FBS	462	473	473

C[C@H]1CN(C[C@@H](C)N1)C2=C(F)C3=C(C(=C2F)N)C(=O)\C(=C/N3C4CC4)C(O)=O
cell viability [%], SEM cells [1]
Conditions	HPLM + 10% dialyzed FBS	RPMI 5 mM glucose + 10% dialyzed FBS
0.000781 µM	108	119
0.00234 µM	112	122
0.00702 µM	130	134
0.0211 µM	122	114
0.0632 µM	109	109
0.19 µM	115	124
0.569 µM	107	118
1.71 µM	91.4	95.3
5.12 µM	95.9	96.3
15.4 µM	86.4	88.7
46.1 µM	60.1	56.9

AUC of viability dose-response curve
Conditions	NOMO1 [4]	P12-Ichikawa [2]	SEM cells [3]
HPLM + 10% dialyzed FBS	422	448	424
RPMI 5 mM glucose + 10% FBS	466	441	423
RPMI 5 mM glucose + 10% dialyzed FBS	446	430	425

C/C(=C\C(=O)Nc1ccccc1C(=O)O)c1ccc2ccccc2c1
AUC of viability dose-response curve
Conditions	HPLM + 10% dialyzed FBS	RPMI 5 mM glucose + 10% FBS	RPMI 5 mM glucose + 10% dialyzed FBS
P12-Ichikawa [2]	461	461	456
SEM cells [3]	435	447	463

CN(C1CCc2c(c3ccccc3n2CC(=O)O)C1)[S+](=O)([O-])c1ccc(F)cc1 (centres undefined)
AUC of viability dose-response curve
Conditions	NOMO1 [4]	P12-Ichikawa [2]	SEM cells [3]
HPLM + 10% dialyzed FBS	383	399	461
RPMI 5 mM glucose + 10% FBS	392	401	425
RPMI 5 mM glucose + 10% dialyzed FBS	392	419	454

COc1ccc(-c2cc3c(C)nc(N)nc3n([C@H]3CC[C@H](OCCO)CC3)c2=O)cn1
cell viability [%]
Conditions	NOMO1 [6]	P12-Ichikawa [5]	SEM cells [1]
HPLM + 10% dialyzed FBS, 0.000781 µM	96.9	103	99.4
HPLM + 10% dialyzed FBS, 0.00234 µM	97.5	107	91.8
HPLM + 10% dialyzed FBS, 0.00702 µM	88.7	103	84.6
HPLM + 10% dialyzed FBS, 0.0211 µM	76.4	85.5	77.2
HPLM + 10% dialyzed FBS, 0.0632 µM	74.2	88.3	70.5
HPLM + 10% dialyzed FBS, 0.19 µM	50	72	64.9
HPLM + 10% dialyzed FBS, 0.569 µM	52.6	66.2	47
HPLM + 10% dialyzed FBS, 1.71 µM	38	66	32.6
HPLM + 10% dialyzed FBS, 5.12 µM	38.8	63.9	24.3
HPLM + 10% dialyzed FBS, 15.4 µM	28.3	63.5	6.37
HPLM + 10% dialyzed FBS, 46.1 µM	20	48.2	1
RPMI 5 mM glucose + 10% FBS, 0.000781 µM	93.6	98.2	105
RPMI 5 mM glucose + 10% FBS, 0.00234 µM	87	95.3	105
RPMI 5 mM glucose + 10% FBS, 0.00702 µM	90.7	85.9	97.8
RPMI 5 mM glucose + 10% FBS, 0.0211 µM	84.8	78	99.8
RPMI 5 mM glucose + 10% FBS, 0.0632 µM	87.4	70.2	79.8
RPMI 5 mM glucose + 10% FBS, 0.19 µM	64.5	55.1	62.1
RPMI 5 mM glucose + 10% FBS, 0.569 µM	68.5	51.4	55.3
RPMI 5 mM glucose + 10% FBS, 1.71 µM	47.7	44.8	29.1
RPMI 5 mM glucose + 10% FBS, 5.12 µM	43.1	42.7	29.6
RPMI 5 mM glucose + 10% FBS, 15.4 µM	40.3	37.9	9.56
RPMI 5 mM glucose + 10% FBS, 46.1 µM	28.4	35.4	1.08
RPMI 5 mM glucose + 10% dialyzed FBS, 0.000781 µM	86.8	96.6	79.7
RPMI 5 mM glucose + 10% dialyzed FBS, 0.00234 µM	86.6	98.2	86.1
RPMI 5 mM glucose + 10% dialyzed FBS, 0.00702 µM	80.7	85.1	75.4
RPMI 5 mM glucose + 10% dialyzed FBS, 0.0211 µM	75.1	76	75.3
RPMI 5 mM glucose + 10% dialyzed FBS, 0.0632 µM	66.4	72.3	69.7
RPMI 5 mM glucose + 10% dialyzed FBS, 0.19 µM	58.4	58.7	58.9
RPMI 5 mM glucose + 10% dialyzed FBS, 0.569 µM	50	55.5	46.4
RPMI 5 mM glucose + 10% dialyzed FBS, 1.71 µM	41.2	45.9	34.7
RPMI 5 mM glucose + 10% dialyzed FBS, 5.12 µM	37.6	39.3	29.3
RPMI 5 mM glucose + 10% dialyzed FBS, 15.4 µM	34.8	38.7	14.6
RPMI 5 mM glucose + 10% dialyzed FBS, 46.1 µM	23.3	37.4	1.67

AUC of viability dose-response curve
Conditions	HPLM + 10% dialyzed FBS	RPMI 5 mM glucose + 10% FBS	RPMI 5 mM glucose + 10% dialyzed FBS
NOMO1 [4]	286	322	278
P12-Ichikawa [2]	351	299	304

O=C1Cc2cc(CCN3CCN(c4nsc5ccccc45)CC3)c(Cl)cc2N1
AUC of viability dose-response curve
Conditions	NOMO1 [4]	P12-Ichikawa [2]	SEM cells [3]
HPLM + 10% dialyzed FBS	444	459	380
RPMI 5 mM glucose + 10% FBS	460	469	366
RPMI 5 mM glucose + 10% dialyzed FBS	457	464	362

CC/C(=C(/CC)c1ccc(O)cc1)c1ccc(O)cc1
AUC of viability dose-response curve
Conditions	NOMO1 [4]	P12-Ichikawa [2]	SEM cells [3]
HPLM + 10% dialyzed FBS	442	463	473
RPMI 5 mM glucose + 10% FBS	465	457	460
RPMI 5 mM glucose + 10% dialyzed FBS	429	436	421
